Drawing on US20260042753A1 (Merck Patent GmbH, priority 2019, published 2026), this text covers IC50 for ten compounds.

For one assay, the target named is c-Kit(V654A) (Homo sapiens, UniProt P10721, V654A). The experiment in a line: c-Kit(V654A) assay. The class given is biochemical. To be noted: Table 1; 200 μM ATP. Put shortly: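 Radiometric filter-binding read-out: after 3% phosphoric acid stop, peptide-incorporated 33P on filtermat scintillation-counted. Enzyme: human c-Kit V654A, residues 544–end, N-terminal GST fusion.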

Assay [1] has as its target mutant cKIT (560-576 and V654A) in GIST430/654 cell line (Homo sapiens (Human), UniProt P10721, DEL560-576/V654A). The experiment in a line: Cellular testing of cKIT mutant inhibitors: phospho-Y307-cKIT Luminex assay in GIST430/654 cells. The class given is cell-based. Particulars: Table 1; cKIT autophosphorylation, compounds 45 min; read-out: GIST 430/654 IC50. The gist of the method: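 Autophosphorylation of mutant cKIT at Y307 was quantified by a Luminex bead sandwich assay (total-cKIT capture, phosphospecific detection) after 45 min compound exposure in GIST430/654 cells, cultured in medium containing 100 nM imatinib. Signals were normalised to solvent (0.3% DMSO) controls and dose-response curves fitted for IC50.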

Each structure is given as a SMILES string. pIC50: −log10 of the molar value.

Sequence of mutant cKIT (560-576 and V654A) in GIST430/654 cell line (P10721 other isoform, or with tags, fused parts or gaps V654A/del 1-25/del 560-576 limits assumed): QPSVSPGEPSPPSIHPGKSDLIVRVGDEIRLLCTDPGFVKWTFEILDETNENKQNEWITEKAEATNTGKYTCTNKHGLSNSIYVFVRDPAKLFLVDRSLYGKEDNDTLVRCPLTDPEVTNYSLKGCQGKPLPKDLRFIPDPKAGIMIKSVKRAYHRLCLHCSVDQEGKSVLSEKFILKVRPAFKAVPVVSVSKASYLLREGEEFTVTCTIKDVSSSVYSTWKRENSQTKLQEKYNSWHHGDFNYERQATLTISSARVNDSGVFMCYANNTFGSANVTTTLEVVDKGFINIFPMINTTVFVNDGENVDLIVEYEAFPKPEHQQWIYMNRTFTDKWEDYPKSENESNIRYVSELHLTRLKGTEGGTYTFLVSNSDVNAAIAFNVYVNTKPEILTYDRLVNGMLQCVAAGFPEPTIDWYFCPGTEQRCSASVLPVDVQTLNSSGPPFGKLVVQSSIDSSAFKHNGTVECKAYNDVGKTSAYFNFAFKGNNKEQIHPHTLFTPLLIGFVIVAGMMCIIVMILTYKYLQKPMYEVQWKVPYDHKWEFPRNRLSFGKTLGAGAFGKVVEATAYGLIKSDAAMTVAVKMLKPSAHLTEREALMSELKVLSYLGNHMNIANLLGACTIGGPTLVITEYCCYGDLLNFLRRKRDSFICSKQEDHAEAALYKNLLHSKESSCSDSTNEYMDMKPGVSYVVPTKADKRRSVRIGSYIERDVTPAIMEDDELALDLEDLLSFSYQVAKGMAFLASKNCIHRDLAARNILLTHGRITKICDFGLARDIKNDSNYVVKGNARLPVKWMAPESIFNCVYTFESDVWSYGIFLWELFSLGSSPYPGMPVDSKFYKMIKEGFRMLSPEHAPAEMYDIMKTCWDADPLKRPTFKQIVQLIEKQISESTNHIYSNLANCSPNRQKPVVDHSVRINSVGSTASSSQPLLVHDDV

In the case of `COCCOc1cc2[nH]nc(-c3cc(-c4ccc(C(=O)N5CC(N6CC7(COC7)C6)C5)cc4)no3)c2cc1F` [A187, 5-fluoro-6-(2-methoxyethoxy)-3-f{3-[4-(3-f{2-oxa-6-azaspiro[3.3]heptan-6-yl}azetidine-1-carbonyl)phenyl]-1,2-oxazol-5-yl}-1H-indazole], the pIC50 at c-Kit(V654A) was 8.85; in assay [1], 6.54.
As to `COCCOc1cc2[nH]nc(-c3cc(-c4ccc(C(=O)N5CCN(C6CCOCC6)CC5)cc4)no3)c2cc1F` [A188, 5-fluoro-6-(2-methoxyethoxy)-3-(3-{4-[4-(oxan-4-yl)piperazine-1-carbonyl]phenyl}-1,2-oxazol-5-yl)-1H-indazole], the pIC50 on c-Kit(V654A) is 9.21; in assay [1], 7.47.
In the case of `COCCOc1cc2[nH]nc(-c3cc(-c4ccc(C(=O)N5CCO[C@@H](C)C5)cc4)no3)c2cc1F` [A189, 5-fluoro-6-(2-methoxyethoxy)-3-(3-{4-[(2S)-2-methylmorpholine-4-carbonyl]phenyl}-1,2-oxazol-5-yl)-1H-indazole], the pIC50 at c-Kit(V654A) was 8.72; in assay [1], 7.32.
On to `COCCOc1cc2[nH]nc(-c3cc(-c4ccc(C(=O)N5CCN(C6COC6)C[C@H]5C)cc4)no3)c2cc1F` [A190, 5-fluoro-6-(2-methoxyethoxy)-3-(3-{4-[(2R)-2-methyl-4-(oxetan-3-yl)piperazine-1-carbonyl]phenyl}-1,2-oxazol-5-yl)-1H-indazole], for which the figures for the pIC50 (at c-Kit(V654A); in assay [1]) were 8.80 and 7.26, respectively.
The like results for `COCCOc1cc2[nH]nc(-c3cc(-c4ccc(C(=O)N5CCN(C6COC6)C[C@@H]5C)cc4)no3)c2cc1F` [A191, 5-fluoro-6-(2-methoxyethoxy)-3-(3-{4-[(2S)-2-methyl-4-(oxetan-3-yl)piperazine-1-carbonyl]phenyl}-1,2-oxazol-5-yl)-1H-indazole] were, in that order, 8.74 and 7.24.
For the compound `COCCOc1cc2[nH]nc(-c3cc(-c4ccc(C(=O)N5CC(c6cccnc6)C5)cc4)no3)c2cc1F` [A192, 5-fluoro-6-(2-methoxyethoxy)-3-(3-{4-[3-(pyridin-3-yl)azetidine-1-carbonyl]phenyl}-1,2-oxazol-5-yl)-1H-indazole], the pIC50 against c-Kit(V654A) was 9.35; in assay [1] it was 7.85.
Take `COCCOc1cc2[nH]nc(-c3cc(-c4ccc(C(=O)N5CCN(C6COC6)CC5)c(C)c4)no3)c2cc1F` [A193, (4-{5-[5-fluoro-6-(2-methoxy-ethoxy)-1H-indazol-3-yl]-isoxazol-3-yl}-2-methyl-phenyl)-(4-oxetan-3-yl-piperazin-1-yl)-methanone]: the results for the pIC50 (against c-Kit(V654A); in assay [1]) were 8.60 and 7.14, respectively.
Turning to `COCCOc1cc2[nH]nc(-c3cc(-c4ccc(C(=O)N5CCN(C6COC6)CC5)cc4)no3)c2cc1Cl` [A194, (4-{5-[5-chloro-6-(2-methoxy-ethoxy)-1H-indazol-3-yl]-isoxazol-3-yl}-phenyl)-(4-oxetan-3-yl-piperazin-1-yl)-methanone], the pIC50 at c-Kit(V654A) was 9.11; in assay [1], 7.36.
As for `COCCOc1cc2[nH]nc(-c3cc(-c4ccc(C(=O)N5CC(c6nncn6CCOC)C5)cc4)no3)c2cc1F` [A195, 5-fluoro-6-(2-methoxyethoxy)-3-[3-(4-{3-[4-(2-methoxyethyl)-4H-1,2,4-triazol-3-yl]azetidine-1-carbonyl}phenyl)-1,2-oxazol-5-yl]-1H-indazole], the pIC50 against c-Kit(V654A) was 7.85; in assay [1] it was 6.15.
For `COCCOc1cc2[nH]nc(-c3cc(-c4ccc(C(=O)N5CCN(C6COC6)CC5)c(F)c4)no3)c2cc1F` [A196, (2-fluoro-4-{5-[5-fluoro-6-(2-methoxy-ethoxy)-1H-indazol-3-yl]-isoxazol-3-yl}-phenyl)-(4-oxetan-3-yl-piperazin-1-yl)-methanone], in that order: 8.42 and 7.32.
